In patent US12509462B2, “3-(phenylsulfonyl)-[1,2,3]triazolo[1,5A]quinazolin-5(4H)-one derivatives” (BIOVERSYS AG, priority 2018, dated 2025):
Converted amounts (≈) assume the structure as drawn.

Tests used:
[1] = test system: HepG2; details: human, 48 h
[2] = test system: MRSA; assay: MIC by broth microdilution in CA-MHB (CLSI); details: Staphylococcus aureus, 18 h, read-out: MIC on MRSA
[3] = test system: Staphylococcus aureus MRSA strain (USA300 isolate); assay: Hemolysis Assay II (exotoxin-mediated lysis of rabbit red blood cells by culture filtrate); assay type: cell-based; details: Erythrocyte; for minimal effective concentration / IC95: 18 h; for minimal effective concentration: absorbance <2× the average of the complete inhibition control, read-out: Hemolysis assay II MEC (minimal effective concentration); for IC95: read-out: Hemolysis assay II IC95; for IC50: 18 h culture in CA-MHB, rabbit red blood cells

| Compound | MIC [2] | LD50 HepG2 [1] | minimal effective concentration [3] | IC95 [3] | IC50 [3] |
| --- | --- | --- | --- | --- | --- |
| Cc1ccc(S(=O)(=O)c2nnn3c2[nH]c(=O)c2cc(Cl)ccc23)c(C)c1 [Compound 1, 7-chloro-3-(2,4-dimethylphenyl)sulfonyl-4H-triazolo[1,5-a]quinazolin-5-one] | ≥ 100 µM | >=100 μM | 4 µg/mL | 2.95 µg/mL (≈ 7.59 µM) | 1.1 µg/mL (≈ 2.83 µM) |
| Cc1ccc(S(=O)(=O)c2nnn3c2[nH]c(=O)c2c(Cl)cccc23)c(C)c1 [Compound 2, 6-chloro-3-(2,4-dimethylphenyl)sulfonyl-4H-triazolo[1,5-a]quinazolin-5-one] | ≥ 100 µM | >=100 μM | 2 µg/mL | 2.5 µg/mL (≈ 6.43 µM) | 0.85 µg/mL (≈ 2.19 µM) |
| Cc1ccc(S(=O)(=O)c2nnn3c2[nH]c(=O)c2cccc(Cl)c23)c(C)c1 [Compound 4, 9-chloro-3-(2,4-dimethylphenyl)sulfonyl-4H-triazolo[1,5-a]quinazolin-5-one] | ≥ 100 µM | 50 µM | 8 µg/mL | 5.2 µg/mL (≈ 13.4 µM) | 2.3 µg/mL (≈ 5.92 µM) |
| Cc1ccc(S(=O)(=O)c2nnn3c2[nH]c(=O)c2ccc(F)cc23)c(C)c1 [Compound 7, 3-(2,4-dimethylphenyl)sulfonyl-8-fluoro-4H-triazolo[1,5-a]quinazolin-5-one] | ≥ 100 µM | >=100 μM | 4 µg/mL | 4.8 µg/mL (≈ 12.9 µM) | 1.7 µg/mL (≈ 4.57 µM) |
| CC(C)c1ccc(S(=O)(=O)c2nnn3c2[nH]c(=O)c2c(Cl)cccc23)cc1 [Compound 8, 6-chloro-3-(4-isopropylphenyl)sulfonyl-4H-triazolo[1,5-a]quinazolin-5-one] | ≥ 100 µM | >=100 μM | 4 µg/mL | 3.8 µg/mL (≈ 9.43 µM) | 2.2 µg/mL (≈ 5.46 µM) |
| COc1ccc2c(=O)[nH]c3c(S(=O)(=O)c4ccc(NC(C)=O)cc4C)nnn3c2c1 [Compound 16, N-[4-[(8-methoxy-5-oxo-4H-triazolo[1,5-a]quinazolin-3-yl)sulfonyl]-3-methyl-phenyl]acetamide] | ≥ 100 µM | >=100 μM | – | – | – |
| COc1ccc2c(=O)[nH]c3c(S(=O)(=O)c4ccc(OC(F)(F)F)cc4C)nnn3c2c1 [Compound 19, 8-methoxy-3-[2-methyl-4-(trifluoromethoxy)phenyl]sulfonyl-4H-triazolo[1,5-a]quinazolin-5-one] | ≥ 100 µM | >=100 μM | – | – | – |
| COc1ccc2c(=O)[nH]c3c(S(=O)(=O)c4ccc(C5CC5)cc4)nnn3c2c1 [Compound 21, 3-(4-cyclopropylphenyl)sulfonyl-8-methoxy-4H-triazolo[1,5-a]quinazolin-5-one] | ≥ 100 µM | >=100 μM | 4 µg/mL | 3.4 µg/mL (≈ 8.58 µM) | 1.5 µg/mL (≈ 3.78 µM) |
| COc1ccc2c(=O)[nH]c3c(S(=O)(=O)c4ccc(C(=O)O)cc4C)nnn3c2c1 [Compound 23, 4-[(8-methoxy-5-oxo-4H-triazolo[1,5-a]quinazolin-3-yl)sulfonyl]-3-methyl-benzoic acid] | ≥ 100 µM | >=100 μM | – | – | – |
| CCOC(=O)c1ccc(S(=O)(=O)c2nnn3c2[nH]c(=O)c2ccc(OC)cc23)c(C)c1 [Compound 24, ethyl 4-[(8-methoxy-5-oxo-4H-triazolo[1,5-a]quinazolin-3-yl)sulfonyl]-3-methyl-benzoate] | ≥ 100 µM | >=100 μM | – | – | – |
| COc1ccc2c(=O)[nH]c3c(S(=O)(=O)c4ccc(C5CC5)cc4C)nnn3c2c1 [Compound 27, 3-(4-cyclopropyl-2-methyl-phenyl)sulfonyl-8-methoxy-4H-triazolo[1,5-a]quinazolin-5-one] | ≥ 100 µM | >=100 μM | 2 µg/mL | 1.9 µg/mL (≈ 4.63 µM) | 0.15 µg/mL (≈ 0.365 µM) |
| CCc1ccc(S(=O)(=O)c2nnn3c2[nH]c(=O)c2ccc(OC)cc23)c(C)c1 [Compound 28, 3-(4-ethyl-2-methyl-phenyl)sulfonyl-8-methoxy-4H-triazolo[1,5-a]quinazolin-5-one] | ≥ 100 µM | >=100 μM | 8 µg/mL | 4.5 µg/mL (≈ 11.3 µM) | 2 µg/mL (≈ 5.02 µM) |
| COc1ccc2c(=O)[nH]c3c(S(=O)(=O)c4ccc(-c5nn[nH]n5)cc4C)nnn3c2c1 [Compound 31, 8-methoxy-3-[2-methyl-4-(2H-tetrazol-5-yl)phenyl]sulfonyl-4H-triazolo[1,5-a]quinazolin-5-one] | ≥ 100 µM | >=100 μM | – | – | – |
| COc1ccc2c(=O)[nH]c3c(S(=O)(=O)c4ccc(C(N)=O)cc4C)nnn3c2c1 [Compound 32, 4-[(8-methoxy-5-oxo-4H-triazolo[1,5-a]quinazolin-3-yl)sulfonyl]-3-methyl-benzamide] | ≥ 100 µM | >=100 μM | – | – | – |
| COc1ccc2c(=O)[nH]c3c(S(=O)(=O)c4ccc(-c5nnc(C)[nH]5)cc4C)nnn3c2c1 [Compound 33, 8-methoxy-3-[2-methyl-4-(5-methyl-4H-1,2,4-triazol-3-yl)phenyl]sulfonyl-4H-triazolo[1,5-a]quinazolin-5-one] | ≥ 100 µM | >=100 μM | – | – | – |
| Cc1ccc(S(=O)(=O)c2nnn3c2[nH]c(=O)c2ccc(OCC#N)cc23)c(C)c1 [Compound 54, 2-[[3-(2,4-dimethylphenyl)sulfonyl-5-oxo-4H-triazolo[1,5-a]quinazolin-8-yl]oxy]acetonitrile] | ≥ 100 µM | >=100 μM | – | – | – |
| Cc1ccc(S(=O)(=O)c2nnn3c2[nH]c(=O)c2ccc(OCCCC(N)=O)cc23)c(C)c1 [Compound 56, 4-[[3-(2,4-dimethylphenyl)sulfonyl-5-oxo-4H-triazolo[1,5-a]quinazolin-8-yl]oxy]butanamide] | ≥ 100 µM | >=100 μM | – | – | – |
| COc1cc2c(=O)[nH]c3c(S(=O)(=O)c4ccc(C)cc4C)nnn3c2cc1O [Compound 57, 3-(2,4-dimethylphenyl)sulfonyl-8-hydroxy-7-methoxy-4H-triazolo[1,5-a]quinazolin-5-one] | ≥ 100 µM | >=100 μM | – | – | – |
| Cc1ccc(S(=O)(=O)c2nnn3c2[nH]c(=O)c2cc(O)c(OCCO)cc23)c(C)c1 [Compound 61, 3-(2,4-dimethylphenyl)sulfonyl-7-hydroxy-8-(2-hydroxyethoxy)-4H-triazolo[1,5-a]quinazolin-5-one] | ≥ 100 µM | >=100 μM | – | – | – |

Further lines, with some results ahead:

| MIC [2] | Compound | LD50 HepG2 [1] | minimal effective concentration [3] | IC95 [3] | IC50 [3] |
| --- | --- | --- | --- | --- | --- |
| ≥ 100 µM | Cc1ccc(S(=O)(=O)c2nnn3c2[nH]c(=O)c2ccc(C#N)cc23)c(C)c1 [Compound 6, 3-(2,4-dimethylphenyl)sulfonyl-5-oxo-4H-triazolo[1,5-a]quinazoline-8-carbonitrile] | >=100 μM | – | – | – |
| 25 µM (≈ 10.1 µg/mL) | CC(C)c1ccc(S(=O)(=O)c2nnn3c2[nH]c(=O)c2cccc(Cl)c23)cc1 [Compound 9, 9-chloro-3-(4-isopropylphenyl)sulfonyl-4H-triazolo[1,5-a]quinazolin-5-one] | 25 µM | – | – | – |
| ≥ 100 µM | COc1ccc2c(=O)[nH]c3c(S(=O)(=O)c4ccc(C)cc4OC)nnn3c2c1 [Compound 10, 8-methoxy-3-(2-methoxy-4-methyl-phenyl)sulfonyl-4H-triazolo[1,5-a]quinazolin-5-one] | >=100 μM | – | – | – |
| ≥ 100 µM | COc1ccc2c(=O)[nH]c3c(S(=O)(=O)c4ccc(OC(C)C)cc4C)nnn3c2c1 [Compound 11, 3-(4-isopropoxy-2-methyl-phenyl)sulfonyl-8-methoxy-4H-triazolo[1,5-a]quinazolin-5-one] | >=100 μM | – | – | – |
| ≥ 100 µM | COc1ccc2c(=O)[nH]c3c(S(=O)(=O)c4ccc(Br)cc4C)nnn3c2c1 [Compound 13, 3-(4-bromo-2-methyl-phenyl)sulfonyl-8-methoxy-4H-triazolo[1,5-a]quinazolin-5-one] | >=100 μM | – | – | – |
| ≥ 100 µM | COc1ccc2c(=O)[nH]c3c(S(=O)(=O)c4ccc(C)cc4F)nnn3c2c1 [Compound 14, 3-(2-fluoro-4-methyl-phenyl)sulfonyl-8-methoxy-4H-triazolo[1,5-a]quinazolin-5-one] | >=100 μM | – | – | – |
| ≥ 100 µM | COc1ccc(S(=O)(=O)c2nnn3c2[nH]c(=O)c2ccc(OC)cc23)c(C)c1 [Compound 15, 8-methoxy-3-(4-methoxy-2-methyl-phenyl)sulfonyl-4H-triazolo[1,5-a]quinazolin-5-one] | >=100 μM | – | – | – |
| ≥ 100 µM | COc1ccc2c(=O)[nH]c3c(S(=O)(=O)c4ccc(F)cc4C)nnn3c2c1 [Compound 17, 3-(4-fluoro-2-methyl-phenyl)sulfonyl-8-methoxy-4H-triazolo[1,5-a]quinazolin-5-one] | >=100 μM | – | – | – |
| ≥ 100 µM | COc1ccc2c(=O)[nH]c3c(S(=O)(=O)c4ccc(Cl)cc4C)nnn3c2c1 [Compound 20, 3-(4-chloro-2-methyl-phenyl)sulfonyl-8-methoxy-4H-triazolo[1,5-a]quinazolin-5-one] | >=100 μM | – | – | – |
| ≥ 100 µM | COc1ccc2c(=O)[nH]c3c(S(=O)(=O)c4ccc(C#N)cc4C)nnn3c2c1 [Compound 22, 4-[(8-methoxy-5-oxo-4H-triazolo[1,5-a]quinazolin-3-yl)sulfonyl]-3-methyl-benzonitrile] | >=100 μM | – | – | – |
| ≥ 100 µM | COc1ccc2c(=O)[nH]c3c(S(=O)(=O)c4ccc(C(F)(F)F)cc4)nnn3c2c1 [Compound 25, 8-methoxy-3-[4-(trifluoromethyl)phenyl]sulfonyl-4H-triazolo[1,5-a]quinazolin-5-one] | >=100 μM | – | – | – |
| ≥ 100 µM | COc1ccc2c(=O)[nH]c3c(S(=O)(=O)c4ccc(C#N)cc4)nnn3c2c1 [Compound 29, 4-[(8-methoxy-5-oxo-4H-triazolo[1,5-a]quinazolin-3-yl)sulfonyl]benzonitrile] | >=100 μM | – | – | – |
| ≥ 100 µM | COc1ccc2c(c1)c(=O)[nH]c1c(S(=O)(=O)c3ccc(C)cc3C)nnn12 [Compound 30, 3-(2,4-dimethylphenyl)sulfonyl-7-methoxy-4H-triazolo[1,5-a]quinazolin-5-one] | >=100 μM | – | – | – |
